Assay results reported in patent US20240148821A1, “PHARMACEUTICAL USE OF CYCLIC PEPTIDE COMPOUND” (CHUGAI SEIYAKU KABUSHIKI KAISHA, priority 2021, published 2024).
Numbered stars: 1 amine (or outer) side, 2 acyl side, 3 side chain; on linkers, the order of the positions; unused ones are H or OH. Bridge positions count the residues as written; N and C are the ends. Square brackets hold non-standard residues; d marks the D form. Peptide text beside a SMILES is read from it. * marks the point of attachment. hPhe(3-Cl-4-CF3) = N[C@@H](CCc1ccc(C(F)(F)F)c(Cl)c1)C(=O)O; hPhe(3-F,4-CF3) = N[C@@H](CCc1ccc(C(F)(F)F)c(F)c1)C(=O)O; NMePhe(4-CF3) = CN[C@@H](Cc1ccc(C(F)(F)F)cc1)C(=O)O; 3Oxa8azabicyclo(3.2.1)octane = C1CC2COCC1N2*; NMePhe(4-Cl) = CN[C@@H](Cc1ccc(Cl)cc1)C(=O)O; NMePhe(4-Me) = CN[C@@H](Cc1ccc(C)cc1)C(=O)O; NMedβ3hAla = C[C@H](CC(=O)[*:2])N(C)[*:1]; NMeGly(cPent) = CN[C@H](C(=O)O)C1CCCC1; NMeCha = CN[C@@H](CC1CCCCC1)C(=O)O; NMeAhp(2) = CCCCC[C@H](NC)C(=O)O; NMeI = CC[C@H](C)[C@H](NC)C(=O)O; NMeT = CN[C@H](C(=O)O)[C@@H](C)O; NMeD = CN[C@@H](CC(=O)O)C(=O)O; NMeL = CN[C@@H](CC(C)C)C(=O)O; Chg = N[C@H](C(=O)O)C1CCCCC1; NMeV = CN[C@H](C(=O)O)C(C)C; NMeC = CN[C@@H](CS)C(=O)O; NMeA = CN[C@@H](C)C(=O)O; NMeAib = CNC(C)(C)C(=O)O; Piperidide = C1CCN(*)CC1; Pyrrolidide = C1CCN(*)C1; Ac5c = NC1(C(=O)O)CCCC1; Aze = O=C(O)[C@@H]1CCN1; Isopentyl = CC(C)CC*; Sar = CNCC(=O)O

Assays:
[1] = biological target: protein-protein interaction between Kras and SOS1 (biotin-tagged human Kras loaded with GDP, His-tagged human SOS1) (Homo sapiens (Human), UniProt P01116, G12D); test: Protein-protein interaction inhibition between Kras and SOS1 (KrasG12D-SOS PPI) using AlphaScreen; format: biochemical; conditions: AlphaScreen; biotin-tagged human Kras loaded with GDP, His-tagged human SOS1; read-out: KRAS G12D-SOS PPI IC50;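 note: kras produced in E. coli, Ni-coupled donor beads and streptavidin acceptor beads, excitation 680 nm with emission detected at 520–620 nm via singlet oxygen transfer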
[2] = tested on: Human pancreatic cancer cell line AsPC-1 (G12D mutation Kras); test: AsPC-1 cell growth inhibition (AsPC-1 CGI); format: cell-based; conditions: read-out: AsPC-1 cell growth inhibition, 50% growth inhibitory concentration (IC50 value); 96 hours, CellTiter-Glo, values classified in ranges

Question: How did the IC50 [1] turn out when CC[C@H](C)[C@@H]1NC(=O)[C@H](CC(C)C)N(C)C(=O)C[C@@H](C(=O)N(C)C)N(C)C(=O)[C@H]([C@@H](C)CC)N(C)C(=O)C2(CCCC2)NC(=O)[C@@H]2CCCN2C(=O)[C@H](CCc2ccc(C(F)(F)F)c(F)c2)NC(=O)CN(C)C(=O)[C@H](Cc2ccc(C)cc2)N(C)C(=O)[C@@H]2CCN2C(=O)[C@H](C)N(C)C1=O [Compound 1017] ([NMeL]I[NMeA][Aze][NMePhe(4-Me)][Sar][hPhe(3-F,4-CF3)]P[Ac5c][NMeI][NMeD]-NMe2; lactam N-11) was run?
Answer: The IC50 was 0.88 nM.

Question: And the IC50 [2]?
Answer: Its IC50 is ≤ 20 nM.

Question: CCCCC[C@H]1C(=O)N[C@@H]([C@@H](C)CC)C(=O)N[C@@H](C)C(=O)N2CC[C@H]2C(=O)N(C)[C@@H](Cc2ccc(C(F)(F)F)cc2)C(=O)N(C)CC(=O)N[C@@H](CCc2ccc(C(F)(F)F)c(Cl)c2)C(=O)N2CCC[C@H]2C(=O)NC2(CCCC2)C(=O)N(C)[C@@H]([C@@H](C)CC)C(=O)N(C)[C@H](C(=O)N2CCCC2)CC(=O)N1C [Compound 209] ([NMeAhp(2)]IA[Aze][NMePhe(4-CF3)][Sar][hPhe(3-Cl-4-CF3)]P[Ac5c][NMeI][NMeD]-Pyrrolidide; lactam N-11) was tested. Which IC50 [1] did it give?
Answer: The IC50 was 1.6 nM.

Question: What about the IC50 [2] of the same compound?
Answer: The IC50 was ≤ 20 nM.

Question: CC(C)CCOC[C@@H]1NC(=O)[C@H](CC(C)C)N(C)C(=O)C[C@@H](C(=O)N2CCCCC2)N(C)C(=O)[C@H](C(C)C)N(C)C(=O)C2(CCCC2)NC(=O)[C@@H]2CCCN2C(=O)[C@H](CCc2ccc(C(F)(F)F)c(Cl)c2)NC(=O)CN(C)C(=O)[C@H](CC2CCCCC2)N(C)C(=O)[C@@H]2CCN2C(=O)[C@H](C)N(C)C1=O [Compound 485] ([NMeL]S(Isopentyl)[NMeA][Aze][NMeCha][Sar][hPhe(3-Cl-4-CF3)]P[Ac5c][NMeV][NMeD]-Piperidide; lactam N-11) was tested. Which IC50 [1] did it give?
Answer: Its IC50 is 160 nM.

Question: And the IC50 [2]?
Answer: Its IC50 is > 500 nM.

Question: Which results are given for CC[C@H](C)[C@@H]1NC(=O)[C@H](CC(C)C)N(C)C(=O)CSC[C@@H](C(=O)N(C)C)N(C)C(=O)[C@H](C2CCCC2)N(C)C(=O)C2(CCCC2)NC(=O)[C@@H]2CCCN2C(=O)[C@H](CCc2ccc(C(F)(F)F)c(Cl)c2)NC(=O)CN(C)C(=O)[C@H](Cc2ccc(C)cc2)N(C)C(=O)[C@@H]2CCN2C(=O)[C@H](C)N(C)C1=O [Compound 2177] ({CH2CO}-[NMeL]I[NMeA][Aze][NMePhe(4-Me)][Sar][hPhe(3-Cl-4-CF3)]P[Ac5c][NMeGly(cPent)][NMeC]-NMe2; thioether N-11)?
Answer: IC50 [1]: 250 nM; IC50 [2]: > 500 nM

Question: Which results are given for CC[C@H](C)[C@@H]1NC(=O)[C@H](CC(C)C)N(C)C(=O)C[C@@H](C)N(C)C(=O)[C@H](C(C)C)NC(=O)C(C)(C)N(C)C(=O)[C@H](CC(C)C)NC(=O)[C@H](CCc2ccc(C(F)(F)F)c(F)c2)NC(=O)CN(C)C(=O)[C@H](Cc2ccc(Cl)cc2)N(C)C(=O)CN(C)C(=O)CN(C)C1=O [Compound 1084] (cyclo(I[Sar][Sar][NMePhe(4-Cl)][Sar][hPhe(3-F,4-CF3)]L[NMeAib]V[NMedβ3hAla][NMeL]))?
Answer: IC50 [1]: 53 nM; IC50 [2]: > 500 nM

Question: Which IC50 [1] does the source give for CC[C@H](C)[C@@H]1NC(=O)[C@H](CC(C)C)N(C)C(=O)C[C@@H](C(=O)N2CCCCC2)N(C)C(=O)[C@H](C(C)C)N(C)C(=O)C2(CCCC2)NC(=O)[C@@H]2CCCN2C(=O)[C@H](CCc2ccc(C(F)(F)F)c(Cl)c2)NC(=O)CN(C)C(=O)[C@H]([C@@H](C)O)N(C)C(=O)[C@@H]2CCN2C(=O)[C@H](C)N(C)C1=O [Compound 862] ([NMeL]I[NMeA][Aze][NMeT][Sar][hPhe(3-Cl-4-CF3)]P[Ac5c][NMeV][NMeD]-Piperidide; lactam N-11) here?
Answer: The IC50 was 2.7 nM.

Question: And the IC50 [2]?
Answer: The IC50 was > 500 nM.

Question: What does the source list for CC[C@H](C)[C@@H]1NC(=O)[C@H](CC(C)C)N(C)C(=O)C[C@@H](C(=O)N2C3CCC2COC3)N(C)C(=O)[C@H](C2CCCC2)N(C)C(=O)C2(CCCC2)NC(=O)[C@@H]2CCCN2C(=O)[C@H](CCc2ccc(C(F)(F)F)c(Cl)c2)NC(=O)CN(C)C(=O)[C@H](CC2CCCCC2)N(C)C(=O)[C@@H]2CCN2C(=O)[C@H](C)N(C)C1=O [Compound 973] ([NMeL]I[NMeA][Aze][NMeCha][Sar][hPhe(3-Cl-4-CF3)]P[Ac5c][NMeGly(cPent)][NMeD]-{3Oxa8azabicyclo(3.2.1)octane}; lactam N-11)?
Answer: IC50 [1]: 2.8 nM; IC50 [2]: ≤ 20 nM

Question: Which IC50 [1] does the source give for CC(C)C[C@@H]1NC(=O)C(C)(C)N(C)C(=O)[C@H](CC(C)C)NC(=O)[C@H](CCc2ccc(C(F)(F)F)c(F)c2)NC(=O)CN(C)C(=O)[C@H](Cc2ccc(Cl)cc2)N(C)C(=O)CN(C)C(=O)CN(C)C(=O)[C@H](C2CCCCC2)NC(=O)[C@H](CC(C)C)N(C)C(=O)C[C@@H](C)N(C)C1=O [Compound 1133] (cyclo([Chg][Sar][Sar][NMePhe(4-Cl)][Sar][hPhe(3-F,4-CF3)]L[NMeAib]L[NMedβ3hAla][NMeL])) here?
Answer: Its IC50 is 56 nM.

Question: What about the IC50 [2] of the same compound?
Answer: Its IC50 is > 500 nM.
